{"source": "patent US20080146540A1", "about": "“Methods of diagnosis and treatment for asthma, allergic rhinitis and other respiratory diseases based on haplotype association” (priority 2003, published 2008)", "key": {"[1]": {"biological_target": "choline acetyltransferase (ChAT)", "settings": "cited from earlier work"}, "IL-1β": {"test_system": "IL-1β", "settings": "lipopolysaccharide challenge; cited from earlier work"}, "asthma patients": {"test_system": "asthma patients", "test": "Phase II clinical study CEP-1347-201: peak expiratory flow rate (PEFR; ANCOVA at week 8 and longitudinal model of daily PEFR)", "format": "in vivo, human", "settings": "for PEFR Change from Baseline at Week 8, LS Mean: ANCOVA; for Mean model predicted PEFR adjusted for baseline percent predicted PEFR, mean: morning PEFR", "excerpt": "Two analyses of PEFR were pre-specified in the SAP, an ANCOVA analysis of the change from baseline at week 8 and a model based longitudinal analysis of the daily PEFR measurements. Results from an ANCOVA (analysis of covariance) including treatment group as a factor and the baseline value as a covariate are presented in Table 19. The ANCOVA results reported in Table 19 were limited to change from baseline at week 8 PEFR measurements from office based spirometry assessments. Patients were also instructed to perform peak flow rate assessments at home, once in the morning and once in the evening using a hand-held peak flow device. PEFR measures were then recorded by the patient into a diary. A total of 6878 morning (5 am-12 noon) observations were collected from 149 patients during the treatment phase of the study (56 days in duration) corresponding to approximately 46.2 observations per subject. […] The endpoint used in this analysis was change from baseline in morning PEFR. While the model based analysis can be difficult to understand, this approach takes advantage of the rich daily PEFR data set (6878 observations) whereas the ANCOVA was limited to the week 8 PEFR (146 observations). The model included a placebo and treatment component. […] This common phenomenon is typically referred to as “regression to the mean”. In addition, the onset of this placebo effect appeared to occur over time. Therefore, a rate constant was added to the model to account for the change in placebo effect over time. […] Placeboss=θ(1)+η(1)+θ(9)*baseline % predicted PEFR (Eq. 3) Placebot=Placeboss*(1-exp(-θ(5)*DAY)) (Eq. 4) […] To allow for a less than immediate CEP-1347 effect, a rate constant controlling the onset of treatment effect was also included in the treatment model. In addition, it was assumed that the ability of a patient to responds to drug treatment was proportional to the patients baseline % predicted PEFR. In other words, patients with normal lung function at baseline would be expected to have little effect whereas those with poor lung function at baseline would be expected to have a larger effect. This model component is similar to a treatment by baseline interaction in an ANCOVA analysis. Equation describes the treatment time course model: […]=θ(n)*ROOM*(1-(-exp(-θ(10)*DAY)) (Eq. 5) Where, […] the treatment effect at time t adjusted for the patient's baseline % predicted PEFR and duration of drug therapy, θ(n) is the fixed effect associated with n treatment group; either 10, 25, or 50 mgBID treatment groups, ROOM scales the magnitude of the treatment effect based on the baseline % predicted PEFR (i.e., 1-baseline predicted; baseline by treatment interaction), θ(10) is the rate constant governing the onset of treatment effect. The overall effect at time t combines the placebo component and the drug component (Equation 6): […]=Placebot+Treatment1+ε(1) (Eq. 6) […] Model selection was done in the same manner as described for the MCT analysis. In addition, a randomization test was undertaken to more accurately determine the p value comparing the full model (run #14 included a treatment component) to the reduced model (run #5; placebo model only). […] The 5th and 95th percentiles for the predicted values were identified from the pool of predicted values to establish a 90% prediction interval around the mean model prediction (Table 21)."}}, "note": "pEC50: −log10 of the molar value."}
{"compound": "CCSCc1ccc2c(c1)c1c3c(c4c5cc(CSCC)ccc5n5c4c1n2C1CC(O)(C(=O)OC)C5(C)O1)CNC3=O", "note": "(stereo not shown) [CEP-1347]", "values": [{"measurement": "pEC50", "setting": "[1]; greater potency than K-252a, read-out: potency (EC50) in spinal cord ChAT assays", "result": 7.30}, {"measurement": "efficacy in spinal cord ChAT assays", "setting": "[1]; greater than K-252a", "result": "250 % of control"}, {"measurement": "production of IL-1β by mice after LPS challenge", "setting": "IL-1β", "result": "reduces production"}, {"measurement": "PEFR Change from Baseline at Week 8, LS Mean", "setting": "asthma patients; 10 mg BID, p 0.30", "result": 0.01}, {"measurement": "PEFR Change from Baseline at Week 8, LS Mean", "setting": "asthma patients; 25 mg BID, p 1.0", "result": 0.03}, {"measurement": "PEFR Change from Baseline at Week 8, LS Mean", "setting": "asthma patients; 50 mg BID, p 0.77", "result": 0.04}, {"measurement": "daily morning PEFR change from baseline, longitudinal mixed effects model with CEP-1347 treatment component vs placebo only model", "setting": "asthma patients; 10, 25, 50 mg BID, 56 days, p=0.012", "result": "statistically significant improvement in the description of the data"}, {"measurement": "Mean model predicted PEFR adjusted for baseline percent predicted PEFR, mean", "setting": "asthma patients; Dose 20, BL % pred PEF 70", "result": 19.3}, {"measurement": "Mean model predicted PEFR adjusted for baseline percent predicted PEFR, mean", "setting": "asthma patients; Dose 20, BL % pred PEF 80", "result": 16.6}, {"measurement": "Mean model predicted PEFR adjusted for baseline percent predicted PEFR, mean", "setting": "asthma patients; Dose 20, BL % pred PEF 96", "result": 12.2}, {"measurement": "Mean model predicted PEFR adjusted for baseline percent predicted PEFR, mean", "setting": "asthma patients; Dose 50, BL % pred PEF 70", "result": 38.6}, {"measurement": "Mean model predicted PEFR adjusted for baseline percent predicted PEFR, mean", "setting": "asthma patients; Dose 50, BL % pred PEF 80", "result": 29.4}, {"measurement": "Mean model predicted PEFR adjusted for baseline percent predicted PEFR, mean", "setting": "asthma patients; Dose 50, BL % pred PEF 96", "result": 14.8}, {"measurement": "Mean model predicted PEFR adjusted for baseline percent predicted PEFR, mean", "setting": "asthma patients; Dose 100, BL % pred PEF 70", "result": 99.5}, {"measurement": "Mean model predicted PEFR adjusted for baseline percent predicted PEFR, mean", "setting": "asthma patients; Dose 100, BL % pred PEF 80", "result": 70.0}, {"measurement": "Mean model predicted PEFR adjusted for baseline percent predicted PEFR, mean", "setting": "asthma patients; Dose 100, BL % pred PEF 96", "result": 22.9}]}
